Source: patent publication US20110275644A1, “BIOLOGICAL MARKERS PREDICTIVE OF ANTI-CANCER RESPONSE TO INSULIN-LIKE GROWTH FACTOR-1 RECEPTOR KINASE INHIBITORS” (priority 2010, published 2011)

Tests used:
[1] = test system: MDAH-2774 OvCa tumor cells; experiment: growth inhibition assay (Cell Titer-Glo); type: cell-based, human
Source text: Cell Lines and Culture. Human cancer cell lines, were obtained from American Type Culture Collection (ATCC, Manassas, Va.), or the following additional indicated sources, and cultured in media as described. Tumor types are also indicated: H295R (adrenocortical carcinoma; ATCC), NCI-[…], NCI-[…], SW1573 (NSCLC; ATCC), […], BxPC3 (pancreatic; ATCC), OVCAR5 (ovarian; NCI;), MDAH-2774 (ovarian; ATCC), Igrov1 (ovarian; NCI), GEO (colon; Roswell Park Cancer Institute (RPCC)), HT-29 (colon; ATCC), RKO (colon; ATCC), […], 8226 (myeloma; ATCC), H929 (myeloma; ATCC), U266 (myeloma; ATCC), SKES1 (Ewings sarcoma; ATCC), RDES (Ewings sarcoma; ATCC), RD (rhabdomyosarcoma; ATCC), DU4475 (breast; ATCC), SKNAS (neuroblastoma; ATCC), 2650 (nasal SCC; ATCC), OVCAR4 (ovarian; NCI), A673 (Ewings sarcoma; ATCC), BT474 (breast; ATCC), 1386 (oral SCC; MSKCC, NY), 1186 (SCCHN; MSKCC, NY), Colo205 (colon; ATCC), HCT-15 (colon; ATCC), Fadu (oral SCC; ATCC), SKBR3 (breast; ATCC), 1483 (HNSCC; MSKCC, NY), HSC-2 (HNSCC; RIKEN BioResource Center, Tsukuba, Ibaraki, 305-0074, Japan). […] The cells were routinely screened for the presence of mycoplasma (MycoAlert, Cambrex Bio Science, Baltimore, Md.). For growth inhibition assays, cells were plated and allowed to proliferate for 24 hours. […] Cell viability was assayed using the Cell Titer-Glo reagent (Promega Corp., Madison, Wis.).

GEO (CRC) tumors = experiment: tumor xenograft anti-tumor efficacy; type: in vivo, nu/nu CD-1 mice; details: OSI-906 50 mg/kg once-daily for 14 days; MAB391 every three days for a total of 5 doses
Source text: (§1) Animals: Female nu/nu CD-1 mice (6-8 weeks, 22-25 g) were purchased from Charles River Laboratories (Wilmington, Mass.) and maintained in an AAALAC-accredited facility at OSI Pharmaceuticals as described previously (12).
(§2) In vivo anti-tumor efficacy studies: Cells were harvested and implanted s.c. in the right flank of nu/nu CD-1 mice as described previously (12). Tumors were allowed to establish to 200±50 mm^3 in size before randomization into various treatment groups. […] Tumor volumes were determined from caliper measurements using the formula V=(length×width^2)/2. Tumor sizes and body weights were measured twice weekly. Tumor growth inhibition (TGI) was determined at different time points by the following formula: % TGI={1−[(Tt/T0)/(Ct/C0)]/1[C0/Ct}×100, where Tt=median tumor volume of treated at time t, T0=median tumor volume of treated at time 0, Ct=median tumor volume of control at time t, and C0=median tumor volume of control at time 0.

[2] = test system: SK-N-AS (neuroblastoma) tumors; experiment: tumor xenograft anti-tumor efficacy; type: in vivo, nu/nu CD-1 mice
Source text: as §1, §2

BxPC3 tumors = experiment: tumor xenograft anti-tumor efficacy; parameters: species or system nu/nu CD-1 mice; details: after treatment with OSI-906 in vivo for 10-14 days
Source text: as §1, §2

Colo205 tumors = experiment: tumor xenograft anti-tumor efficacy; parameters: species or system nu/nu CD-1 mice; details: after treatment with OSI-906 in vivo for 10-14 days
Source text: as §1, §2

FaDu tumors = experiment: tumor xenograft anti-tumor efficacy; parameters: species or system nu/nu CD-1 mice; details: after treatment with OSI-906 in vivo for 10-14 days
Source text: as §1, §2

H295R tumors = experiment: tumor xenograft anti-tumor efficacy; parameters: species or system nu/nu CD-1 mice; details: after treatment with OSI-906 in vivo for 10-14 days
Source text: as §1, §2

H460 tumors = experiment: tumor xenograft anti-tumor efficacy; parameters: species or system nu/nu CD-1 mice; details: after treatment with OSI-906 in vivo for 10-14 days
Source text: as §1, §2

phospho-AKT [3] = experiment: in vivo pharmacodynamic analysis, GEO tumors; parameters: species or system nu/nu CD-1 mice; details: GEO model
Protocol: Tumor samples were collected at specified time points and snap frozen in liquid nitrogen. Tumor lysates were prepared by homogenizing samples in Precellys 24 homogenizer (MO Bio Laboratories, Inc., CA) with tumor lysis buffer (1% Triton X-100, 10% glycerol, 50 mM HEPES (ph 7.4), 150 mM NaCl, 1.5 mM MgCl2, 1 mM EDTA supplemented with fresh protease inhibitor cocktail (Sigma, Mo.), phosphatase inhibitor cocktail (Sigma, Mo.), 10 mM NaF and 1 mM sodium orthovanadate). Tissue homogenates were clarified by centrifugation at 14,000 g for 5 min at 4° C. and supernatants were then analyzed by Western blot or phospho-RTK array as indicated.

[4] = test system: phospho-AKT or phospho-ERK; experiment: Western blot, downstream AKT and ERK signaling in tumor cell lines; type: cell-based, human; details: OSI-906 3 μM or MAB391 3 μg/ml, 16 hour
Protocol: (§3) Preparation of Protein Lysates and Western Blotting: Lysates for Western blotting were prepared as previously described (44). Antibodies included: IGF-1R (Santa Cruz), IR (Santa Cruz), phospho-p42/p44 (Cell Signaling Technologies), phospho-Akt (S473) (Cell Signaling Technologies), phospho-Akt (T308) (Cell Signaling Technologies), phosho-S6 (235/236) (Cell Signaling Technologies), phosphor-PRAS40 (Cell Signaling Technologies), and phosphor-IRS-1-Y612 (Biosource).

phospho-IRS1^Y612 = experiment: Western blot, phospho-IRS1 in tumor cell lines; type: cell-based, human; details: A673, H322, and H295R tumor cell lines; OSI-906 3 μM or MAB391 3 μg/ml
Protocol: as §3

phospho-PRAS40 = experiment: Western blot, phospho-PRAS40 in H295R cells; type: cell-based, human
Protocol: as §3

IR and IGF-1R = experiment: receptor phosphorylation in doxorubicin-treated A673 tumor cells; type: cell-based, human
pERK = pERK in doxorubicin-treated A673 tumor cells; type: cell-based, human
phospho-AKT [5] = experiment: phospho-AKT in HT-29 CRC cells with insulin; type: cell-based, human; details: HT-29 cells, basal or 5 or 50 μIU/mL insulin
Protocol: as §3

[6] = test system: broad panel (n=116) of additional RTKs and other protein kinases; details: at 1 μM; cited from earlier work
phospho-IGF-1R [7] = target: T1, phospho-IGF-1R (Homo sapiens, UniProt P08069); experiment: receptor phosphorylation in MDAH-2774 cells; type: cell-based; parameters: endogenous in cells; host or cells: human tumour cell lines (MDAH-2774); details: MDAH-2774 cells alone or with insulin, IGF-1 or IGF-2; OSI-906 3 μM or MAB391 3 μg/ml
T1 sequence (P08069 31-1367): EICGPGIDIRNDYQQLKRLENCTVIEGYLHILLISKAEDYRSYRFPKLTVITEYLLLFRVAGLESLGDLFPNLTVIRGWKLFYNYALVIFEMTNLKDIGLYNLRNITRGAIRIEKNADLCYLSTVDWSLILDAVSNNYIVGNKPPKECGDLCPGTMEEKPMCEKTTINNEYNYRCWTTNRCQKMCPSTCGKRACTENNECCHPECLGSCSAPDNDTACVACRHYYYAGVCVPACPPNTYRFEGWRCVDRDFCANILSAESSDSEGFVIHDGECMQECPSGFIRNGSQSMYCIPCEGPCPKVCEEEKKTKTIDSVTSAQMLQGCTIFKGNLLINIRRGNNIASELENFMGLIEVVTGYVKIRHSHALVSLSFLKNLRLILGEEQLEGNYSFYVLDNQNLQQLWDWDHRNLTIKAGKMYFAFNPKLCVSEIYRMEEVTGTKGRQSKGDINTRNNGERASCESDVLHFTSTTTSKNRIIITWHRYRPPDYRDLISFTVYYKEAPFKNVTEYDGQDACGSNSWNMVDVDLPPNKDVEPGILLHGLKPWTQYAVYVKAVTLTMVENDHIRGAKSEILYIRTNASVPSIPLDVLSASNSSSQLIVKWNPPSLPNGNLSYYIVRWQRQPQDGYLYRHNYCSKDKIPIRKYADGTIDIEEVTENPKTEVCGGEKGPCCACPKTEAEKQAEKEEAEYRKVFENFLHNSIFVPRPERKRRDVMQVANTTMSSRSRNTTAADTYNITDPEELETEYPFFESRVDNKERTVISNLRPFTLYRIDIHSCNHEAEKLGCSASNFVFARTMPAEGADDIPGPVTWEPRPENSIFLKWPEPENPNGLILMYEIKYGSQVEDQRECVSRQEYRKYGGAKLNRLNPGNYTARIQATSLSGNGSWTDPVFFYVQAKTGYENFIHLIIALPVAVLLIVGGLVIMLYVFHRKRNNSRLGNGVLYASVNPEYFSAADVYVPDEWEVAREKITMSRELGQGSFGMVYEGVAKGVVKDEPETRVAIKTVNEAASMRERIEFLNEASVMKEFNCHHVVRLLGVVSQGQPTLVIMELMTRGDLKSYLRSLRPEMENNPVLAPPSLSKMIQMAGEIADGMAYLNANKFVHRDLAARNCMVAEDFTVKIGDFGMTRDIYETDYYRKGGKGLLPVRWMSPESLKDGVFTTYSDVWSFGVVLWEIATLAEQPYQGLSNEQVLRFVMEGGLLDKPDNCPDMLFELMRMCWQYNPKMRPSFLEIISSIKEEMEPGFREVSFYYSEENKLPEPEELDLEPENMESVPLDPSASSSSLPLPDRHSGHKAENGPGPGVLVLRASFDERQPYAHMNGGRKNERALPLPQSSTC
Protocol: as §3
(§4) Analysis of RTK phosphorylation via a proteome array: Proteome Profiler arrays containing capture antibodies for 42 RTKs were from R&D systems (RTK Proteome Profile; R&D Systems, Minneapolis, Minn.) and processed according to manufacturer's protocol. pIGF-1R and pIR were determined by RTK capture array. Proteome profiler arrays housed 42 different RTKs. RTKs included on the array include: HER1, HER2, HER3, HER4, FGFR1, FGFR2a, FGFR3, FGFR4, IR, IGF-1R, Axl, Dtk, Mer, HGFR, MSPR, PDGFRα, PDGFRβ, SCFR, Flt-3, M-CSFR, c-Ret, ROR1, ROR2, Tie-1, Tie-2, TrkA, TrkB, TrkC, VEGFR1, VEGFR2, VEGFR3, MuSK, EphA1, EphA2, EphA3, EphA4, EphA6, EphA7, EphB1, EphB2, EphB4, EphB6. This array was used as an RTK capture assay for determining pIGF-1R and pIR levels. Capture antibodies specific to each RTK are used to bind RTKs in tumor cell extracts. […]

phospho-IGF-1R [8] = target: T1, phospho-IGF-1R; experiment: RTK capture array, panel of nine tumor cell lines; type: cell-based; parameters: endogenous in cells; host or cells: human tumour cell lines (panel of nine; HT-29; MDAH-2774; H322, SK-N-AS, H295R, A673); details: OSI-906 3 μM or MAB391 3 μg/mL; 16 hours; each cell line tested
Protocol: Analysis of RTK phosphorylation via a proteome array: Proteome Profiler arrays containing capture antibodies for 42 RTKs were from R&D systems (RTK Proteome Profile; R&D Systems, Minneapolis, Minn.) and processed according to manufacturer's protocol. pIGF-1R and pIR were determined by RTK capture array. Proteome profiler arrays housed 42 different RTKs. RTKs included on the array include: HER1, HER2, HER3, HER4, FGFR1, FGFR2a, FGFR3, FGFR4, IR, IGF-1R, Axl, Dtk, Mer, HGFR, MSPR, PDGFRα, PDGFRβ, SCFR, Flt-3, M-CSFR, c-Ret, ROR1, ROR2, Tie-1, Tie-2, TrkA, TrkB, TrkC, VEGFR1, VEGFR2, VEGFR3, MuSK, EphA1, EphA2, EphA3, EphA4, EphA6, EphA7, EphB1, EphB2, EphB4, EphB6. This array was used as an RTK capture assay for determining pIGF-1R and pIR levels. Capture antibodies specific to each RTK are used to bind RTKs in tumor cell extracts. An HRP-conjugated pan anti-phospho-tyrosine antibody is used to specifically detect phosphorylated RTKs.

phospho-IGF-1R [9] = target: T1, phospho-IGF-1R; experiment: receptor phosphorylation in HT-29 CRC cells with insulin; type: cell-based; parameters: endogenous in cells; host or cells: human tumour cell lines (panel of nine; HT-29; MDAH-2774; H322, SK-N-AS, H295R, A673); details: HT-29 cells treated with 5 or 50 μIU/mL insulin; OSI-906 3 μM or MAB391 3 μg/ml, 16 hours
Protocol: as §3, §4

[10] = A673 tumor cells, doxorubicin 300 nM

In the case of `C[C@]1(O)C[C@@H](c2nc(-c3ccc4ccc(-c5ccccc5)nc4c3)c3c(N)nccn32)C1` [OSI-906, cis-3-[8-amino-1-(2-phenyl-quinolin-7-yl)-imidazo[1,5-a]pyrazin-3-yl]-1-methyl-cyclobutanol], the “sensitivity to OSI-906 in vitro” value [1] is reported as “sensitive”, the “mean TGI over the dosing period” value (GEO (CRC) tumors) is reported as 79% and the “mean tumor growth inhibition (TGI) over the dosing period” value ([2]; OSI-906 50 mg/kg once-daily for 14 days, MAB391 1 mg every three days intraperitoneally) is reported as 100%. For the same molecule, the “% TGI” value ([2]; after treatment with OSI-906 in vivo for 10-14 days) was 71%, the “% TGI” value (BxPC3 tumors) was 56% and the “% TGI” value (Colo205 tumors) was 90%. The “% TGI” value (FaDu tumors) was under 30%, the “% TGI” value (H295R tumors) was 85% and the “% TGI” value (H460 tumors) was under 30%. The “effect on phospho-AKT in tumors” value (phospho-AKT [3]) was “decreased phospho-AKT in tumors”, the “decrease of phospho-AKT or phospho-ERK levels” value ([4]; H322, H295R, and A673 cells) was “to a greater extent than did MAB391” and the “effect on phospho-AKT levels” value ([4]; SK-N-AS (neuroblastoma) tumor cells) was “decrease phospho-AKT levels”. The “inhibition of phosphorylation of IRS1^Y612” value (phospho-IRS1^Y612) was “strongly inhibited”, the “effect on phospho-PRAS40” value (phospho-PRAS40) was “decreased phospho-PRAS40” and the “inhibition of IR and IGF-1R phosphorylation” value (IR and IGF-1R; A673 tumor cells treated with doxorubicin (300 nM)) was “inhibits both IR and IGF-1R”. The “inhibition of pERK” value (pERK; A673 tumor cells treated with doxorubicin (300 nM), compared with MAB391) was “greater inhibition of pERK”, the “inhibition of phospho-AKT” value (phospho-AKT [5]) was “fully inhibited” and the inhibition [6] was under 50%. The “inhibition of IGF-1R phosphorylation” value (phospho-IGF-1R [7]) was “fully inhibited”, the “decrease of phospho-IGF-1R” value (phospho-IGF-1R [8]) was over 90% and the “inhibition of phospho-IGF-1R” value (phospho-IGF-1R [9]) was “fully inhibited”.
In the case of `COc1cccc2c1C(=O)c1c(O)c3c(c(O)c1C2=O)C[C@@](O)(C(=O)CO)C[C@@H]3O[C@H]1C[C@H](N)[C@H](O)[C@H](C)O1` [doxorubicin, reference compound], the “phosphorylation of IR and IGF-1R following treatment” value (IR and IGF-1R; [10]) is reported as “upregulated phosphorylation of both IR and IGF-1R” and the “downstream signaling at the level of pERK following treatment” value (pERK; [10]) is reported as “increased phosphorylation of downstream signaling at the level of pERK”.
